Our source for the inhibition values is US20240174744A1, “METHODS OF TREATMENT USING PROTEIN BINDERS TO IRHOM2 EPITOPES” (SCIRHOM GMBH, priority 2021, published 2024).

Experiment [1] deals with PMA-induced release of IL-6R from THP-1 cells. Put plainly: ELISA-based IL-6R release assay, PMA-stimulated THP-1 cells. Type of experiment: cell-based. To be noted: Homo sapiens, recombinant murine antibodies 1 μg/ml, Batimastat 10 μM, PMA 25 ng/ml, 1 hour. The protocol: In the following study, ELISA-based IL-6R release assays were performed to analyze the inhibitory effects of the antibodies of the present disclosure on PMA-induced release of endogenous IL-6R from human THP-1 monocytic cells.
In brief, on day 1, Nunc black MaxiSorp® 96-well plates (Thermo Fisher Scientific, USA) were coated for 7 hours with 100 μl per well of mouse anti-human IL-6R capture antibody (provided as part of the DuoSet ELISA kit) at 2 μg/ml TBS at room temperature. Capture antibody solution was removed and MaxiSorp® plates were blocked with 300 μl per well of TBS, 1% BSA at room temperature for 1.5 hours. […] Using an infinite M1000 (Tecan Group, Switzerland) microplate reader, the fluorescence of each well was collected at an excitation wavelength of 435 nm and an emission wavelength of 555 nm.
(An ELISA detects its analyte on a solid surface through an enzyme-linked reagent.)

Experiment [2] concerns PMA-induced release of HB-EGF from U-937 cells. The experiment in a line: ELISA-based HB-EGF release assay, PMA-stimulated U-937 cells. Particulars: Homo sapiens, murine (m) and chimeric (ch) antibodies 3 μg/ml, Batimastat 10 μM, PMA 25 ng/ml, 6 hours. Type of experiment: cell-based. The protocol: Complementary to Example 29 described above, ELISA-based HB-EGF release assays were performed to verify the inhibitory effects of the antibodies of the present disclosure on PMA-induced release of endogenous HB-EGF from human U-937 cells.
The production of the recombinant antibody material that was used in this example is identical to the one described in Example 25. The ELISA-based HB-EGF release assay that was used in this example is identical with the one described in Example 30, with the only difference, that U-937 (European Collection of Authenticated Cell Cultures, UK) cells were used instead of THP-1 (American Type Culture Collection, USA) cells.

As usually defined, the inhibition is the share of the control response that was lost under treatment.

For `CNC(=O)[C@H](Cc1ccccc1)NC(=O)[C@H](CC(C)C)[C@H](CSc1cccs1)C(=O)NO` [Batimastat], the inhibition at 10 µM came out at 88.6% in experiment [1] and 100% in experiment [2].
